Assay results as given in patent publication US8754115B2, “Fungicidal pyrazoles” (E I du Pont de Nemours and Company, priority 2010, dated 2014).
Marks after values point to notes of the source that are not given here.

Assays:
Assay type in all cases: in vivo
[1] = test system: Puccinia recondite f. sp. tritici; experiment: Test E1: curative spray on wheat seedlings after inoculation, visual disease rating (wheat leaf rust)
From the text: (§1) General protocol for preparing test suspensions for Tests A-F: the test compounds were first dissolved in acetone in an amount equal to 3% of the final volume and then suspended at the desired concentration (in ppm) in acetone and purified water (50/50 mix by volume) containing 250 ppm of the surfactant Trem® 014 (polyhydric alcohol esters). The resulting test suspensions were then used in Tests A-F. Spraying a 200 ppm test suspension to the point of run-off on the test plants was the equivalent of a rate of 800 g/ha. Unless otherwise indicated, the rating values indicate a 200 ppm test suspension was used. (An asterisk “*” next to the rating value indicates a 40 ppm test suspension was used.)
Wheat seedlings were inoculated with a spore suspension of Puccinia recondite f. sp. tritici (the causal agent of wheat leaf rust) and incubated in a saturated atmosphere at 20° C. for 24 h, and then moved to a growth chamber at 20° C. for 2 days. After 2 days, the test suspension was sprayed to the point of run-off on the wheat seedlings, and then the seedlings were moved back to the growth chamber at 20° C. for 6 days. Upon removal, visual disease ratings were made.
(§2) Results for Tests A-F are given in Table A. In the Table, a rating of 100 indicates 100% disease control and a rating of 0 indicates no disease control (relative to the controls). A dash (-) indicates no test results. An asterisk “*” next to the rating value indicates a 40 ppm test suspension was used.

Septoria tritici = experiment: Test D: preventive spray on wheat seedlings, visual disease rating (wheat leaf blotch)
Method in brief: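 Protection was scored visually on a 0–100% disease-control scale versus controls, 19 days after plants were moved to 20 °C following 48 h of 24 °C saturated humidity. Spore inoculation with S. tritici took place one day after a preventive run-off spray, usually at 200 ppm (800 g/ha) and at 40 ppm where asterisked.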

Septoria nodorum = experiment: Test C: preventive spray on wheat seedlings, visual disease rating (Septoria glume blotch)
From the text: as §1
(§3) The test suspension was sprayed to the point of run-off on wheat seedlings. The following day the seedlings were inoculated with a spore suspension of Septoria nodorum (the causal agent of Septoria glume blotch) and incubated in a saturated atmosphere at 24° C. for 48 h, and then moved to a growth chamber at 20° C. for 6 days, after which time visual disease ratings were made.
as §2

[2] = test system: Puccinia recondite f. sp. tritici; experiment: Test E2: preventive spray on wheat seedlings, visual disease rating (wheat leaf rust)
Method in brief: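 Wheat seedlings were inoculated with leaf rust spores one day after a run-off spray of compound at 200 ppm (asterisk: 40 ppm) in 50/50 acetone/water with 250 ppm Trem 014. Incubation: 24 h saturated humidity, 20 °C; then 7 days growth chamber, 20 °C. Disease control scored visually, 0–100% relative to controls.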

Alternaria solani = experiment: Test B: preventive spray on tomato seedlings, visual disease rating (tomato early blight)
From the text: as §1
as §3, with “tomato” for “wheat”, “Alternaria solani” for “Septoria nodorum”, “tomato early blight)” for “Septoria glume blotch)”, “27°” for “24°”, “5” for “6”
as §2

Botrytis cinerea = experiment: Test A: preventive spray on tomato seedlings, visual disease rating (tomato Botrytis)
Method in brief: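 Preventive test: Botrytis cinerea spores applied one day after run-off spraying at 200 ppm (≈800 g/ha), or 40 ppm where asterisked. Incubation 48 h at 20 °C in saturated air, then 3 days at 24 °C; disease scored visually from 0 (no control) to 100 (complete control) versus untreated.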

[3] = test system: Blumeria graminis f. sp. tritici; experiment: Test F: preventive spray on wheat seedlings, visual disease rating (wheat powdery mildew)
Method in brief: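 Visual ratings (0–100% control relative to controls) taken 8 days after spore-dust inoculation at 20° C. Inoculation followed one day after a protective run-off spray of 200 ppm suspension, equal to 800 g/ha, or 40 ppm where flagged, made in acetone/water with 250 ppm surfactant.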

[4] = no asterisk: standard test suspension, not 40 ppm
[5] = no asterisk: standard test suspension, not 40 ppm, 100 = 100% disease control, 0 = none
[6] = asterisk: 40 ppm test suspension

| Compound | Test E1 rating (% disease control) [1, 4] | Test D rating (% disease control) (Septoria tritici; [4]) | Test C rating (% disease control) (Septoria nodorum; [4]) | Test E2 rating (% disease control) [2, 4] | Test B rating (% disease control) (Alternaria solani; [4]) | Test A rating (% disease control) (Botrytis cinerea; [5]) | Test F rating (% disease control) [3, 4] | Test E1 rating (% disease control) [1, 6] | Test D rating (% disease control) (Septoria tritici; [6]) | Test C rating (% disease control) (Septoria nodorum; [6]) | Test E2 rating (% disease control) [2, 6] | Test B rating (% disease control) (Alternaria solani; [6]) | Test A rating (% disease control) (Botrytis cinerea; [6]) | Test F rating (% disease control) [3, 6] |
| --- | --- | --- | --- | --- | --- | --- | --- | --- | --- | --- | --- | --- | --- | --- |
| Cc1nn(C)c(-c2c(F)cccc2Cl)c1C(O)c1c(F)cc(F)cc1F (centres unmarked) [compound 34] | 84% | 100% | 100% | 99% | 99% | 100% | 100% |  |  |  |  |  |  |  |
| COc1cc(F)c(C(O)c2c(C)nn(C)c2-c2ccc(F)cc2Cl)c(F)c1 (centres unmarked) [compound 20] |  |  |  |  |  |  |  | 99* % | 100* % | 0* % | 99* % | 97* % | 97* % | 92* % |
| Cc1nn(C)c(-c2c(F)cccc2F)c1Nc1ccc(Cl)cc1Cl [compound 65] | 9% | 100% | 0% | 89% | 0% | 100% | 100% |  |  |  |  |  |  |  |
| Cc1nn(C)c(-c2ccc(F)cc2Cl)c1C(O)c1ccc(F)cc1Br (centres unmarked) [compound 23] | 98% | 100% | 87% | 100% | 67% | 100% | 84% |  |  |  |  |  |  |  |
| Cc1nn(C)c(-c2c(Cl)cccc2Cl)c1C(O)c1ccc(F)cc1Cl (centres unmarked) [compound 69] | 0% | 100% | 96% | 99% | 100% | 99% | 97% |  |  |  |  |  |  |  |
| 4-[(4-chlorophenyl)thio]-5-(2,6-difluorophenyl)-1,3-dimethyl-1H-pyrazole [Compound 56] | 0% | 100% | 0% | 99% | 59% | 100% | 100% |  |  |  |  |  |  |  |
| 4-(2-chloro-4-fluorophenoxy)-5-(2,4-difluorophenyl)-1,3-dimethyl-1H-pyrazole [Compound 5] | 99% | 100% | 100% | 100% | 100% | 100% | 100% |  |  |  |  |  |  |  |
| Cc1nn(C)c(-c2ccc(F)cc2F)c1Nc1ccc(F)cc1Cl [compound 57] |  |  |  |  |  |  |  | 0* % | 81* % | 0* % | 18* % | 0* % | 99* % | 97* % |
| Cc1nn(C)c(-c2ccc(F)cc2Cl)c1C(O)c1ccc(F)cc1F (centres unmarked) [compound 17] | 83% | 100% | 60% | 100% | 94% | 100% | 100% |  |  |  |  |  |  |  |
| Cc1nn(C)c(-c2c(F)cc(F)cc2F)c1C(O)c1ccc(F)cc1Cl (centres unmarked) [compound 61] | 99% | 100% | 99% | 100% | 100% | 100% | 100% |  |  |  |  |  |  |  |
| Cc1nn(C)c(-c2c(F)cccc2F)c1C(O)c1ccc(C#N)cc1F (centres unmarked) [compound 22] | 17% | 100% | 0% | 88% | 84% | 88% | 0% |  |  |  |  |  |  |  |
